Read-outs that look alike come from different tables or passages of the source.
Tests used:
[1] = system: Tau phosphorylation at Ser396 (pSer396), SH-SY5Y cells; experiment: Tau phosphorylation at Ser396 (pSer396) in SH-SY5Y cells, ELISA/western blot; assay type: cell-based, human; settings: Homo sapiens;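 also: cell lysates probed for reduced Tau pSer396 via ELISA (colorimetric) or western blot (chemiluminescence), both with one shared pSer396 antibody, EC50 for lowering phosphorylation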
Method: Two days before treatment, cells were seeded onto 96 well plates at 5×10^4 cells/well.
Wells were visually checked for cell death or change in morphology and supernatants were tested for cytotoxicity by measurement of lactate dehydrogenase release (LDH, CytoToxOne kit, Promega) if necessary.
Cells were lysed with RIPA buffer complemented with phosphatase and protease inhibitors then lysates were spun down at 12,000 g for 10 min to remove any cellular debris. Lysates are then either directly tested for pSer396 by ELISA (Life Technology, Kit KHB7031) or loaded on NuPage Bis-Tris gels for western blot analysis. Colorimetric detection of ELISA signal is performed by Cytation3 plate reader (Biotek) and the chemiluminescence signal for HRP-linked antibodies used in western blotting is detected using a Carestream Image Station. The same pSer396 antibody is used for detection of pTau in both assays.

IL-6 = IL-6 inhibition in LPS-stimulated human peripheral blood mononuclear cells (HTRF); assay type: cell-based; settings: Homo sapiens, PBMC; for inhibition at 10 µM: read-out: percent value in parentheses below EC50 >10; for EC50: IL-6, LPS-stimulated huPBMCs, HTRF
Procedure, shortened: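 EC50 from a 4-parameter fit of DMSO-normalized HTRF (665/620 nm) IL-6 signal, duplicates. Compound was added to fresh human PBMCs in 1% FBS RPMI for 2 h (top 10 μM, 3-fold, 0.25% DMSO) before 22 h stimulation with LPS at 50 ng/mL, 37 °C.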

[2] = system: Wnt activity (Sp5-Luc reporter in SW480 colon carcinoma cells); experiment: Wnt activity screening assay (Sp5-Luc reporter gene assay); assay type: cell-based, human
Procedure, shortened: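 Compounds at 10 points (1:3 steps, top 10 μM, 0.1% DMSO final) were incubated 36 to 48 h at 37° C with stable Sp5-Luc SW480 reporter cells in 1% FBS medium. Luciferase luminescence was then read and expressed relative to DMSO-only cells. Four-parameter variable-slope fitting yielded EC50 values.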

[3] = system: LL29 cells (primary human fibroblasts derived from IPF patients), α-smooth muscle actin; experiment: Inhibition of fibrotic process: αSMA in TGF-β1-treated primary human fibroblasts from IPF patients (LL29 cells); assay type: cell-based; settings: Homo sapiens, Fibroblast; for EC50: 96 h, % αSMA-positive LL29 cells, TGF-β1 20 ng/mL, 4 days; for inhibition at 10 µM: read-out: percent inhibition at 10 μM
Procedure, shortened: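 Read-out is the percentage of αSMA-positive cells by high-content imaging, excluding SYTOX green-positive dead/apoptotic cells, normalized to TGF-β1-only wells on the same plate. LL29 cells were exposed for 4 days at 37 °C to 20 ng/mL TGF-β1 plus 11-point, 2-fold compound dilutions in 0.1% DMSO.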

DYRK1A kinase = DYRK1A kinase (Homo sapiens (Human), UniProt Q13627); experiment: DYRK1A kinase assay (Ser/Thr 18 peptide Z-lyte, FRET)
GSK3β kinase = GSK3β kinase (Homo sapiens (Human), UniProt P49841); experiment: GSK3β kinase assay (Ser/Thr 09 peptide Z-lyte, FRET); assay type: biochemical; settings: method text calls the value IC50;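 also: Coumarin/fluorescein emission ratio converted to percent phosphorylation against unphosphorylated (0%) and phosphorylated (100%) controls, 1 h compound incubation at room temperature, 11-point threefold dilutions from 10 µM, run in duplicate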
GSK3β kinase, sequence (P49841 whole entry): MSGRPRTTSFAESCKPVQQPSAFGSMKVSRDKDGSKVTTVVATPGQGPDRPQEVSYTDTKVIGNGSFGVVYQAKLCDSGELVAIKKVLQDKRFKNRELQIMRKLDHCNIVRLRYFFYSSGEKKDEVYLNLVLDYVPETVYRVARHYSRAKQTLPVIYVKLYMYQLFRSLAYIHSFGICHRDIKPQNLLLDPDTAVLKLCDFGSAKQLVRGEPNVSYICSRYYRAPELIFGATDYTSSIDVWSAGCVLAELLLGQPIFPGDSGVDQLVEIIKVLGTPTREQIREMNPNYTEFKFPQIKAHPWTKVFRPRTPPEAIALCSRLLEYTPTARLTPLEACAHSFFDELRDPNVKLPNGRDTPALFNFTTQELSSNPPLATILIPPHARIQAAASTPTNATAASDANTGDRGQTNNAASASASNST

[4] = system: SW480 colon carcinoma cells; experiment: Cell viability assay (CellTiter-Glo) in SW480 cells; assay type: cell-based, human;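 also: SW480 cells stably carrying an Sp5-luciferase TCF/LEF reporter, luminescent ATP signal as viability measure, DMSO-treated cells as control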
[5] = SH-SY5Y cells, overnight (16-18 h), read-out: pSer396 Tau EC50
[6] = Homo sapiens; Sp5-Luc reporter, SW480 cells, 36 to 48 hours
[7] = Homo sapiens, 96 h; cell viability, SW480 cells, four days, CellTiter-Glo
[8] = DYRK1A kinase, method text calls the value IC50
[9] = Homo sapiens, SW480; read-out: percent inhibition at 10 μM
[10] = SH-SY5Y, read-out: pSer396 Tau EC50 (μM)
[11] = Homo sapiens, SW480, read-out: percent inhibition at 10 μM

SMILES | EC50 [1, 5] [µM] | EC50 (IL-6) [µM] | EC50 [2, 6] [µM] | EC50 (DYRK1A kinase) [µM] | EC50 (GSK3β kinase) [µM] | EC50 [4, 7] [µM] | EC50 (DYRK1A kinase; [8]) [µM] | inhibition at 10 µM (IL-6) [%] | EC50 [3] [µM] | inhibition at 10 µM [2, 9] [%] | inhibition at 10 µM [4, 9] [%] | inhibition at 10 µM [3] [%] | EC50 [1, 10] [µM] | inhibition at 10 µM [4, 11] [%] | inhibition at 10 µM [2, 11] [%]
[2H]C([2H])([2H])c1ccc(C(=O)Nc2cc3cc(-c4cnc(C)n4C)ccc3cn2)cc1 [Compound 161, N-(6-(1,2-Dimethyl-1H-imidazol-5-yl)isoquinolin-3-yl)-4-(methyl-d3) benzamide] | > 10 | > 10 | 0.736 | 0.01 | 5.67 | 0.66 | – | 42.2 | 3 | – | – | – | – | – | –
[2H]c1c([2H])c(C(=O)Nc2cc3cc(-c4cnc(C)n4C)ccc3cn2)c([2H])c([2H])c1C [Compound 162, N-(6-(1,2-Dimethyl-1H-imidazol-5-yl)isoquinolin-3-yl)-4-methylbenzamide-2,3,5,6-d4] | > 10 | > 10 | 0.588 | 0.011 | 5.06 | 0.653 | – | 44.7 | 2 | – | – | – | – | – | –
[2H]c1c([2H])c(C([2H])([2H])[2H])c([2H])c([2H])c1C(=O)Nc1cc2cc(-c3cnc(C)n3C)ccc2cn1 [Compound 163, N-(6-(1,2-Dimethyl-1H-imidazol-5-yl)isoquinolin-3-yl)-4-(methyl-d3) benzamide-2,3,5,6-d4] | > 10 | 5.72 | 0.604 | 0.005 | 4.27 | 0.795 | – | – | 0.876 | – | – | – | – | – | –
[2H]C([2H])([2H])Oc1ccc(C(=O)Nc2cc3cc(-c4cnc(C)n4C)ccc3cn2)cc1 [Compound 164, N-(6-(1,2-Dimethyl-1H-imidazol-5-yl)isoquinolin-3-yl)-4-(methoxy-d3) benzamide] | > 10 | 3.39 | 0.638 | 0.011 | 4.58 | 0.782 | – | – | 1.48 | – | – | – | – | – | –
[2H]c1c([2H])c(C(=O)Nc2cc3cc(-c4cnc(C)n4C)ccc3cn2)c([2H])c([2H])c1OC([2H])([2H])[2H] [Compound 165, N-(6-(1,2-Dimethyl-1H-imidazol-5-yl)isoquinolin-3-yl)-4-(methoxy-d3) benzamide-2,3,5,6-d4] | > 10 | 2.85 | 0.498 | 0.006 | 3.74 | 0.752 | – | – | 0.998 | – | – | – | – | – | –
Cc1nnc(-c2ccc3cnc(NC(=O)N4[C@@H]5CC[C@H]4C[C@@H](NCC(F)F)C5)cc3c2)s1 [Compound 188, (1R,5S)-cis-3-((2,2-difluoroethyl)amino)-N-(6-(5-methyl-1,3,4-thiadiazol-2-yl)isoquinolin-3-yl)-8-azabicyclo [3.2.1]octane-8-carboxamide] | – | 5.77 | 8.21 | – | 0.154 | > 10 | 0.003 | – | 2.48 | – | – | – | 4.8 | 28 | –
Cc1nnc(-c2ccc3cnc(NC(=O)N4[C@@H]5CC[C@H]4C[C@@H](N)C5)cc3c2)s1 [Compound 193, (1R,5S)-3-endo-Amino-N-(6-(5-methyl-1,3,4-thiadiazol-2-yl)isoquinolin-3-yl)-8-azabicyclo[3.2.1]octane-8-carboxamide] | – | > 10 | > 10 | – | 0.33 | > 10 | 0.033 | 6.5 | > 10 | – | – | 6.5 | > 10 | 12.8 | 8.4

Second part, led by results:

EC50 [1, 5] [µM] | EC50 (IL-6) [µM] | EC50 [2, 6] [µM] | EC50 (DYRK1A kinase) [µM] | EC50 (GSK3β kinase) [µM] | EC50 [4, 7] [µM] | EC50 (DYRK1A kinase; [8]) [µM] | SMILES | inhibition at 10 µM (IL-6) [%] | EC50 [3] [µM] | inhibition at 10 µM [2, 9] [%] | inhibition at 10 µM [4, 9] [%] | inhibition at 10 µM [3] [%] | EC50 [1, 10] [µM] | inhibition at 10 µM [4, 11] [%] | inhibition at 10 µM [2, 11] [%]
> 10 | 3.55 | 0.525 | 0.009 | 6.38 | 0.671 | – | [2H]c1c([2H])c(C(=O)Nc2cc3cc(-c4cnc(C)n4C)ccc3cn2)c([2H])c([2H])c1OC [Compound 166, N-(6-(1,2-Dimethyl-1H-imidazol-5-yl)isoquinolin-3-yl)-4-methoxybenzamide-2,3,5,6-d4] | – | 1.88 | – | – | – | – | – | –
0.288 | 1.25 | 2.35 | – | 0.096 | 3.34 | 0.007 | Cn1cc(-c2ccc3cnc(NC(=O)C4CCN(C(C)(C)C)CC4)cc3c2)cn1 [Compound 167, 1-(tert-Butyl)-N-(6-(1-methyl-1H-pyrazol-4-yl)isoquinolin-3-yl)piperidine-4-carboxamide] | – | 0.293 | – | – | – | – | – | –
0.578 | > 10 | > 10 | – | 0.02 | > 10 | 0.004 | Cc1nnc(-c2ccc3cnc(NC(=O)N4CCC(NCC(F)F)CC4)cc3c2)s1 [Compound 168, 4-((2,2-Difluoroethyl)amino)-N-(6-(5-methyl-1,3,4-thiadiazol-2-yl)isoquinolin-3-yl)piperidine-1-carboxamide] | 14.2 | 1.29 | 42.2 | 19.4 | – | – | – | –
0.154 | 1.02 | 2.54 | – | 0.047 | 1.13 | 0.003 | CCCCN1CCC(C(=O)Nc2cc3cc(-c4cnn(C)c4)ccc3cn2)CC1 [Compound 169, 1-Butyl-N-(6-(1-methyl-1H-pyrazol-4-yl)isoquinolin-3-yl)piperidine-4-carboxamide] | – | 0.148 | – | – | – | – | – | –
9.91 | > 10 | > 10 | 0.015 | 0.052 | > 10 | – | CC(C)C[N+]1(CC(C)C)CCC(C(=O)Nc2cc3cc(-c4cnn(C)c4)ccc3cn2)CC1 [Compound 170, 1,1-Diisobutyl-4-((6-(1-methyl-1H-pyrazol-4-yl)isoquinolin-3-yl)carbamoyl)piperidin-1-ium] | 4.4 | 7.09 | 23.1 | 27 | – | – | – | –
4 | > 10 | 1.03 | – | 0.207 | > 10 | 0.023 | Cc1nnc(-c2ccc3cnc(NC(=O)N4C[C@H]5C[C@@H]4CN5C)cc3c2)s1 [Compound 176, (1R,4R)-5-Methyl-N-(6-(5-methyl-1,3,4-thiadiazol-2-yl)isoquinolin-3-yl)-2,5-diazabicyclo[2.2.1]heptane-2-carboxamide] | 8.4 | > 10 | – | 8.3 | 8.4 | – | – | –
1.3 | > 10 | 2.78 | – | 0.026 | 5.06 | 0.018 | CN[C@H]1CCN(C(=O)Nc2cc3cc(-c4nnc(C)s4)ccc3cn2)C[C@@H]1F [Compound 179, (3S,4S)-3-Fluoro-N-(6-(5-methyl-1,3,4-thiadiazol-2-yl)isoquinolin-3-yl)-4-(methylamino)piperidine-1-carboxamide] | 10.1 | > 10 | – | – | 10.1 | – | – | –
0.218 | 3.09 | 0.681 | – | 0.012 | 1.26 | 0.003 | Cc1nnc(-c2ccc3cnc(NC(=O)[C@H]4CC[C@H](N5CCN(C)CC5)CC4)cc3c2)s1 [Compound 194, trans-N-(6-(5-methyl-1,3,4-thiadiazol-2-yl)isoquinolin-3-yl)-4-(4-methylpiperazin-1-yl)cyclohexane-1-carboxamide] | – | 0.328 | – | – | – | – | – | –

— patent US10604514B2, “6-(5-membered heteroaryl)isoquinolin-3-yl carboxamides and preparation and use thereof” (Samumed, LLC, priority 2017, dated 2020)
